Assay results published in US20090269798A1, “METHOD AND SYSTEM FOR SELECTING CHEMOTHERAPEUTIC AGENTS” (UNIVERSITY OF NORTHERN IOWA RESEARCH FOUNDATION, priority 2008, published 2009).
Where two headings read alike, the source gives them in different places. Marks after values point to notes of the source that are not given here.

Assays:
[1] = system: Jurkat (human T lymphocytic leukemia); details: 96 hours, ± standard deviation
Method: (§1) In the experiments shown in Table1 a/b, the indicated concentrations of hydrogen peroxide were added to the various types of cells and they were incubated for 96 hours until growth was measured by the ^3H-thymidine assay or viability determined by the 3-(4,5-diphenylthiazol-2-yl)-2,5-diphenyltetrazolium bromide (“MTT”) assay. Numbers represent triplicate or quadruplicate determinations.

[2] = system: K-562 (human erythroleukemia); details: 96 hours, ± standard deviation
Method: as §1

Normal cells = details: 96 hours, ± standard deviation
Method: as §1

[3] = system: THP-1 (human monocytic leukemia); details: 96 hours, ± standard deviation
Method: as §1

[4] = system: YT-INDY (human NK cell leukemia); details: 96 hours, ± standard deviation
Method: as §1

Jurkat cells = details: four-hour exposure, 25 μM H2O2

`OO` [Hydrogen Peroxide, hydrogen peroxide] was tested, and the “amount of cell division remaining (compared to control cells without hydrogen peroxide)” value ([1]; 25 μM hydrogen peroxide) was 1.2 ± 0.4, the “amount of cell division remaining (compared to control cells without hydrogen peroxide)” value ([1]; 50 μM hydrogen peroxide) was 2.4 ± 1.1 and the “amount of cell division remaining (compared to control cells without hydrogen peroxide)” value ([1]; 100 μM hydrogen peroxide) was 1.3 ± 1.1. The “amount of cell division remaining (compared to control cells without hydrogen peroxide)” value ([1]; 200 μM hydrogen peroxide) was 1.0 ± 0.2, the “amount of cell division remaining (compared to control cells without hydrogen peroxide)” value ([2]; 25 μM hydrogen peroxide) was 41.6 ± 24.5 and the “level of live cells remaining (compared to control cells without hydrogen peroxide)” value ([2]; 25 μM hydrogen peroxide) was 58.6 ± 3.2. For the same compound, the “amount of cell division remaining (compared to control cells without hydrogen peroxide)” value ([2]; 50 μM hydrogen peroxide) was 7.1 ± 5.1, the “level of live cells remaining (compared to control cells without hydrogen peroxide)” value ([2]; 50 μM hydrogen peroxide) was 19.6 ± 1.2 and the “amount of cell division remaining (compared to control cells without hydrogen peroxide)” value ([2]; 100 μM hydrogen peroxide) was 4.3 ± 2.6. The “level of live cells remaining (compared to control cells without hydrogen peroxide)” value ([2]; 100 μM hydrogen peroxide) was 8.9 ± 0.2, the “amount of cell division remaining (compared to control cells without hydrogen peroxide)” value ([2]; 200 μM hydrogen peroxide) was 2.7 ± 0.3 and the “level of live cells remaining (compared to control cells without hydrogen peroxide)” value ([2]; 200 μM hydrogen peroxide) was 8.0 ± 0.4. The “amount of cell division remaining (compared to control cells without hydrogen peroxide)” value (Normal cells; 25 μM hydrogen peroxide) was 68.2 ± 5.4^b, the “level of live cells remaining (compared to control cells without hydrogen peroxide)” value (Normal cells; 25 μM hydrogen peroxide) was 100.6 ± 3.3^b and the “amount of cell division remaining (compared to control cells without hydrogen peroxide)” value (Normal cells; 50 μM hydrogen peroxide) was 84.4 ± 12.3. The “level of live cells remaining (compared to control cells without hydrogen peroxide)” value (Normal cells; 50 μM hydrogen peroxide) was 102.7 ± 5.5, the “amount of cell division remaining (compared to control cells without hydrogen peroxide)” value (Normal cells; 100 μM hydrogen peroxide) was 92.5 ± 19.9 and the “level of live cells remaining (compared to control cells without hydrogen peroxide)” value (Normal cells; 100 μM hydrogen peroxide) was 89.4 ± 0.9. The “amount of cell division remaining (compared to control cells without hydrogen peroxide)” value (Normal cells; 200 μM hydrogen peroxide) was 81.9 ± 9.2, the “level of live cells remaining (compared to control cells without hydrogen peroxide)” value (Normal cells; 200 μM hydrogen peroxide) was 83.0 ± 1.8 and the “amount of cell division remaining (compared to control cells without hydrogen peroxide)” value ([3]; 25 μM hydrogen peroxide) was 115.8 ± 10.6. For the same compound, the “level of live cells remaining (compared to control cells without hydrogen peroxide)” value ([3]; 25 μM hydrogen peroxide) was 103.0 ± 2.2, the “amount of cell division remaining (compared to control cells without hydrogen peroxide)” value ([3]; 50 μM hydrogen peroxide) was 102.8 ± 5.9 and the “level of live cells remaining (compared to control cells without hydrogen peroxide)” value ([3]; 50 μM hydrogen peroxide) was 101.8 ± 1.8. The “amount of cell division remaining (compared to control cells without hydrogen peroxide)” value ([3]; 100 μM hydrogen peroxide) was 91.0 ± 0.2, the “level of live cells remaining (compared to control cells without hydrogen peroxide)” value ([3]; 100 μM hydrogen peroxide) was 95.6 ± 0.6 and the “amount of cell division remaining (compared to control cells without hydrogen peroxide)” value ([3]; 200 μM hydrogen peroxide) was 63.2 ± 7.1. For the same compound, the “level of live cells remaining (compared to control cells without hydrogen peroxide)” value ([3]; 200 μM hydrogen peroxide) was 65.6 ± 2.0, the “amount of cell division remaining (compared to control cells without hydrogen peroxide)” value ([4]; 25 μM hydrogen peroxide) was 109.2 ± 2.4 and the “level of live cells remaining (compared to control cells without hydrogen peroxide)” value ([4]; 25 μM hydrogen peroxide) was 68.2 ± 4.8. For the same compound, the “amount of cell division remaining (compared to control cells without hydrogen peroxide)” value ([4]; 50 μM hydrogen peroxide) was 2.8 ± 0.8, the “level of live cells remaining (compared to control cells without hydrogen peroxide)” value ([4]; 50 μM hydrogen peroxide) was 32.1 ± 2.6 and the “amount of cell division remaining (compared to control cells without hydrogen peroxide)” value ([4]; 100 μM hydrogen peroxide) was 3.7 ± 2.5. The “level of live cells remaining (compared to control cells without hydrogen peroxide)” value ([4]; 100 μM hydrogen peroxide) was 29.7 ± 1.0, the “amount of cell division remaining (compared to control cells without hydrogen peroxide)” value ([4]; 200 μM hydrogen peroxide) was 10.2 ± 3.5 and the “level of live cells remaining (compared to control cells without hydrogen peroxide)” value ([4]; 200 μM hydrogen peroxide) was 27.5 ± 0.5. The “killing of Jurkat cells” value (Jurkat cells) was “significant killing”.
